Experimental data as given in patent US12692221B2 (priority 2024, dated 2026).
“Also recorded” adds a separate entry of the source.

Tests used:
[1] = molecular target: T1, beta2 (h) (Homo sapiens, UniProt P07550); assay: Radioligand binding beta2 (h) (antagonist radioligand), [^3H](−)CGP 12177, CHO cells
T1 construct: expressed in transfected cells; host or cells: CHO cells
Experimental: (§1) Methods—Binding Assays: In vitro binding assays were performed using human recombinant receptors expressed in mammalian cell lines. Receptors were expressed in either HEK-293 or CHO cells depending on the target, and assay conditions (radioligand, concentration, nonspecific competitor, temperature, and incubation time) were optimized for each receptor. All assays were conducted in triplicate, and specific binding was quantified by scintillation counting as the detection method for each listed assay.
(§2) Specific binding was expressed as a percentage of control-specific binding, and percent inhibition was calculated using the formula in Ex. 8 above. Half-maximal inhibitory concentrations (IC50) were determined by non-linear regression analysis of the inhibition curves using the Hill equation (see Ex. 8). Inhibition constants (Ki) were calculated using the Cheng-Prusoff equation (see Ex. 8). KD values used in these calculations had been previously established for each receptor under the assay conditions (see Table 6). Data analysis was performed using software developed at Cerep and validated against SigmaPlot 4.0 for Windows.

[2] = molecular target: T2, MAO-A (Rattus norvegicus, UniProt P21396); assay: Radioligand binding MAO-A (antagonist radioligand), [^3H]Ro 41-1049, rat cerebral cortex
T2 construct: from tissue; host or cells: rat cerebral cortex
T2 sequence (P21396 1-526): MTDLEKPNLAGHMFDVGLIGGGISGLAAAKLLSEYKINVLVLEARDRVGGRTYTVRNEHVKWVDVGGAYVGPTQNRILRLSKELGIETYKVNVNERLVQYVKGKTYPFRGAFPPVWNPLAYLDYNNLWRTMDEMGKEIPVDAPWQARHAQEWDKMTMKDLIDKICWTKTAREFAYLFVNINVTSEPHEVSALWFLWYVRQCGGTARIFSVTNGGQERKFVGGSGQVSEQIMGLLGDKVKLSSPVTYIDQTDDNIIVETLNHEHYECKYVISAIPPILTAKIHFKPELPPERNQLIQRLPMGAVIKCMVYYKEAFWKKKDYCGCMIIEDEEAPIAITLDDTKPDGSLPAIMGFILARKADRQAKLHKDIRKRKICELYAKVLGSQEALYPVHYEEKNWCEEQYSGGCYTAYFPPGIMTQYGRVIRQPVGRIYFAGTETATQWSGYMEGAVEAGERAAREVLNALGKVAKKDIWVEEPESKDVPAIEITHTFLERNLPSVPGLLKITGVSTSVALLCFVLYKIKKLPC

[3] = molecular target: COX1(h) (Homo sapiens, UniProt P23219); assay: Enzyme assay COX1(h), arachidonic acid + ADHP, fluorimetry; type: biochemical
COX1(h), sequence (P23219 24-599): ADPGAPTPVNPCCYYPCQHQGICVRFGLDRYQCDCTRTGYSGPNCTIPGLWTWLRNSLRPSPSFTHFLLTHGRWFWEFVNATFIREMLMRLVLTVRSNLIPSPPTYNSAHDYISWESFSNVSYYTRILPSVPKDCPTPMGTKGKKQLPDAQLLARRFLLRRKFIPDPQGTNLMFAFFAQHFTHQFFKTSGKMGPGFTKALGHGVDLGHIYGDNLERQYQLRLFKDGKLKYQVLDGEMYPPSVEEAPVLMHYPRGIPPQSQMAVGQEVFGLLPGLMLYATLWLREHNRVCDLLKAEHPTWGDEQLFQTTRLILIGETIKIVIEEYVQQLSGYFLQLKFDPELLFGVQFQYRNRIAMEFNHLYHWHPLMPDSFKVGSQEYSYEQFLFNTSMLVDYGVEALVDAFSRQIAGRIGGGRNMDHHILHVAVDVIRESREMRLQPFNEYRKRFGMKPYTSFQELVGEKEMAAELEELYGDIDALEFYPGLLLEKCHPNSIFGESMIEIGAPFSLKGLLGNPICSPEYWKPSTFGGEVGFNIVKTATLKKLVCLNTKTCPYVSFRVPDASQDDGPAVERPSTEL
Experimental: (§3) Methods—Enzyme and Uptake Assays: In vitro enzyme and uptake assays were conducted by Eurofins Discovery using human recombinant enzymes expressed in various mammalian and insect cell lines. Enzymatic activity was measured using appropriate substrates or tracers under conditions optimized for each target, as detailed in Table 7. Reactions were incubated at room temperature for a defined duration and terminated according to established protocols. The measured components (either enzymatic products or remaining substrate) were quantified using fluorimetry, photometry, scintillation counting, or LANCE technology, depending on the assay. Assay-specific parameters, including substrate identity, cell line source, incubation time, and detection method, are provided in Table 7.
(§4) All measurements were performed in technical replicates to ensure reproducibility and data quality.
(§5) Results were expressed both as a percentage of control-specific activity and as percent inhibition of control-specific activity. Percent activity was calculated as (measured specific activity/control specific activity)×100, and percent inhibition as 100−[(measured specific activity/control specific activity)×100], based on values obtained in the presence of test compounds. IC50 and EC50 values, along with Hill coefficients (nH), were determined by nonlinear regression analysis of inhibition or concentration-response curves generated from mean replicate values. Hill curve fitting was performed as previously described using software developed at Cerep and validated against SigmaPlot® 4.0 for Windows® (© 1997 by SPSS Inc.).

[4] = test system: male C57BL/6J mice; assay: Mouse head-twitch response (HTR) assay, magnetometer; type: in vivo; conditions: i.p.; for HTR (head twitch response), in words: doses up to 30 mpk
[5] = molecular target: T3, beta1 (h) (Homo sapiens, UniProt P08588); assay: Radioligand binding beta1 (h) (agonist radioligand), [^3H](−)CGP 12177, HEK-293 cells
T3 construct: expressed in transfected cells; host or cells: HEK-293 cells
T3 sequence (P08588 whole entry): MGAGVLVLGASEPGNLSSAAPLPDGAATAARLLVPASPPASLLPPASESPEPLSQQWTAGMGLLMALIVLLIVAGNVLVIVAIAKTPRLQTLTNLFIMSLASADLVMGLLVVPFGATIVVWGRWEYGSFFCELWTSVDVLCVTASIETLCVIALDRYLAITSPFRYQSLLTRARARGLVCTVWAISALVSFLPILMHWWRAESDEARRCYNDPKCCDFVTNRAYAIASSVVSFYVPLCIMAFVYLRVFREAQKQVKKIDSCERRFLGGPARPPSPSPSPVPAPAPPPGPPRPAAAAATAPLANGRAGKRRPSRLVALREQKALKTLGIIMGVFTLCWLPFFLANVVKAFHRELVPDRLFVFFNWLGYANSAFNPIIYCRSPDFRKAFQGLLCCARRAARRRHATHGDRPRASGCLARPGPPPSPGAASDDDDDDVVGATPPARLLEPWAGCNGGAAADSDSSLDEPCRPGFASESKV
Experimental: as §1, §2

[6] = molecular target: T4, norepinephrine transporter(h) (Homo sapiens, UniProt P23975); assay: Radioligand binding NE transporter (h) (antagonist radioligand), [^3H]nisoxetine, CHO cells
T4 construct: expressed in transfected cells; host or cells: CHO cells
T4 sequence (P23975 whole entry): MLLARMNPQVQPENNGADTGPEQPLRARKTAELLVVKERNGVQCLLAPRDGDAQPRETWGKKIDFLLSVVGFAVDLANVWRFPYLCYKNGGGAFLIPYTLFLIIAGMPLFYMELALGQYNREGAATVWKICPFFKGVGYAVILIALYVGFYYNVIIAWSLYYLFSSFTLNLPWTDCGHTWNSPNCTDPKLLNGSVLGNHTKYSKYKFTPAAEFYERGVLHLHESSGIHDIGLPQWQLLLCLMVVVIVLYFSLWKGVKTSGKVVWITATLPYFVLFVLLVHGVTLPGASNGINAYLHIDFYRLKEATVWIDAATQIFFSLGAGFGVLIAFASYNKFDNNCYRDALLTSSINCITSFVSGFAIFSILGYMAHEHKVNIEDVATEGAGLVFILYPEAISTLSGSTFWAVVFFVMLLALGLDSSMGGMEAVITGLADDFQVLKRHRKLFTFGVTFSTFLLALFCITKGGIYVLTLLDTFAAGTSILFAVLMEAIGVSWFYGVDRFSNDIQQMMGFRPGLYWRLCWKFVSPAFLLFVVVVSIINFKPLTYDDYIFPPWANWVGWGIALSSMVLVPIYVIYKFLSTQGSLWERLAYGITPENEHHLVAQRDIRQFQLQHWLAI
Experimental: as §1, §2

[7] = test system: Ca^2+ channel (L, dihydropyridine site); assay: Radioligand binding Ca^2+ channel (L, dihydropyridine site) (antagonist radioligand), [^3H]nitrendipine, rat cerebral cortex
[8] = molecular target: T5, PDE3A(h) (Homo sapiens, UniProt Q14432); assay: Enzyme assay PDE3A(h), [3H]cAMP, scintillation counting; type: biochemical
T5 construct: host or cells: Sf21 cells
T5 sequence (Q14432 whole entry): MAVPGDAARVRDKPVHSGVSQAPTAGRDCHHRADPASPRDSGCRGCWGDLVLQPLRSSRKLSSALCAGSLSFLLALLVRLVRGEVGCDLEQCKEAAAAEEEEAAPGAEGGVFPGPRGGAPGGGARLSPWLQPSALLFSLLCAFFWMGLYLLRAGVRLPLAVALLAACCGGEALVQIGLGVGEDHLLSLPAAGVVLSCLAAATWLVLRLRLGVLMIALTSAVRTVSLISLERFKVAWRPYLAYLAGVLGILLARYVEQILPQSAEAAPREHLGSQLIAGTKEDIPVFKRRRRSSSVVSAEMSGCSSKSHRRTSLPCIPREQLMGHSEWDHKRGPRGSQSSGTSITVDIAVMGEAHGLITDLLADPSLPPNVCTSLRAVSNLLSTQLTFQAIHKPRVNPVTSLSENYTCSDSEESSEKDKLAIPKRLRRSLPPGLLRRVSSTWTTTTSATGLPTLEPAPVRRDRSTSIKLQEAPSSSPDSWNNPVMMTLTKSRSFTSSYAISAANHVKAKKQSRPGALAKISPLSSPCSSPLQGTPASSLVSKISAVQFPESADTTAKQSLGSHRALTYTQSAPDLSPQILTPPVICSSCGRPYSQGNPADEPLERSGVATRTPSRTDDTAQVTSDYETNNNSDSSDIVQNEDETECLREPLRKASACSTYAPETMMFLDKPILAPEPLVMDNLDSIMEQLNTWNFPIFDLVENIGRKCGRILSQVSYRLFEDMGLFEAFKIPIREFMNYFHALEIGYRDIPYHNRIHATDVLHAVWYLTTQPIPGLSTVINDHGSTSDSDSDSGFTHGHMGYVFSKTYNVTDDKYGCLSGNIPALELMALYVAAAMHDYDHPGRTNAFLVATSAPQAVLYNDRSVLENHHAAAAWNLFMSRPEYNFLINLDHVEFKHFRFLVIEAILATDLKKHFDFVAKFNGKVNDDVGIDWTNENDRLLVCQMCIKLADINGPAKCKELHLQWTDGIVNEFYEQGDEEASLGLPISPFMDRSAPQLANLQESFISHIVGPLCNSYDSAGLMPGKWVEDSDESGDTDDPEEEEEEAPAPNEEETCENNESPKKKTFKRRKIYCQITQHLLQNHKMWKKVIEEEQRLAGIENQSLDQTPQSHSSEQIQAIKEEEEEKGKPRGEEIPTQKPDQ
Experimental: as §3, §4, §5

[9] = Photoabsorption 290-700 nm, molar extinction coefficient (photoliability); type: physicochemical; conditions: wavelength of maximal absorption between 290 nm and 700 nm
[10] = test system: KV channel; type: binding, rat; conditions: KV channel (antagonist radiolig.)
[11] = molecular target: T6, M3 (h) (Homo sapiens, UniProt P20309); assay: Radioligand binding M3 (h) (antagonist radioligand), [^3H]4-DAMP, CHO cells
T6 construct: expressed in transfected cells; host or cells: CHO cells
T6 sequence (P20309 whole entry): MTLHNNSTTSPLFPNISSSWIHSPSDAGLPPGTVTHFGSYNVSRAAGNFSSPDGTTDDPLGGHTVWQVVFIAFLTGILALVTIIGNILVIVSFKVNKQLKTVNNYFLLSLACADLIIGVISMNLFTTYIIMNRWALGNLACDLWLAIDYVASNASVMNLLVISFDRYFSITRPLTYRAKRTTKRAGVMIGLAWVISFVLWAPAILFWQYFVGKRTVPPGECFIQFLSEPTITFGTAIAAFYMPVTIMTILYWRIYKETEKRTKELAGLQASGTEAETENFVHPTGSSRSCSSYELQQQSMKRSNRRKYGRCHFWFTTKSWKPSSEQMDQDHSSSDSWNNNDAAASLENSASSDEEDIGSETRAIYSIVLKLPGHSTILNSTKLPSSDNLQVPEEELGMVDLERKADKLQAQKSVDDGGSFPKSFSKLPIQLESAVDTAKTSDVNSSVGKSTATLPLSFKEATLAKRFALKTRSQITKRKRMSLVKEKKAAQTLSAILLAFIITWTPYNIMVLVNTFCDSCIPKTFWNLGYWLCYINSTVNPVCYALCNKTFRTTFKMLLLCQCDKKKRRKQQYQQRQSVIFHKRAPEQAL
Experimental: as §1, §2

[12] = test system: MDR1; assay: MDR1-MDCKII bidirectional permeability assay; type: in vitro ADME, Canine; conditions: dog; for recovery at 60 min / recovery at 40 min: MDCK-MDR1, pH 7.4; for recovery at 60 min / Papp A→B at 60 min: apical-to-basolateral; for recovery at 60 min: read-out: A-B Percent Recovery; for recovery at 40 min / Papp B→A at 40 min: basolateral-to-apical; for recovery at 40 min: read-out: B-A Percent Recovery; for Papp A→B at 60 min / Papp B→A at 40 min: MDCK-MDR1, HBSS pH 7.4, 37° C.
Experimental: Methods: In vitro permeability studies were performed using confluent monolayers of MDR1-transfected Madin-Darby Canine Kidney (MDR1-MDCKII) cells cultured under standard conditions. Cells were seeded onto permeable supports and maintained until they formed tight monolayers suitable for bidirectional transport studies. The assay was conducted at 37° C. using Hanks' balanced salt solution (HBSS) adjusted to pH 7.4 on both the apical and basolateral sides. For apical-to-basolateral (A-B) permeability, samples were collected at 0 and 60 minutes, whereas for basolateral-to-apical (B-A) permeability, samples were collected at 0 and 40 minutes. The concentration of each compound in the donor and receiver chambers was determined by HPLC-MS/MS, and all results were expressed in terms of peak area.
The apparent permeability coefficient (Papp) for each compound was calculated using the formula:
[formula] where VR was the volume of the receiver chamber, CR,end was the concentration of the compound in the receiver chamber at the final time point, At was the incubation time, and A was the surface area of the cell monolayer. The midpoint donor concentration (CD,mid) was calculated as the average of the donor concentrations at time 0 and the end time point, while CR,mid was calculated as one-half of CaR,end.
Compound recovery was also evaluated using the following formula:
[formula] where VD and VR were the volumes of the donor and receiver chambers, respectively, CD,end and CR,end were the compound concentrations at the final time point in their respective compartments, and CD0 was the initial concentration in the donor chamber. Monolayer integrity was assessed following the permeability assay using fluorescein as a paracellular marker compound. Fluorescein was added to the apical chamber and sampled in the basolateral chamber after incubation. […] Only data from wells that met this integrity threshold were included in the final analysis.

T1 sequence (P07550 whole entry): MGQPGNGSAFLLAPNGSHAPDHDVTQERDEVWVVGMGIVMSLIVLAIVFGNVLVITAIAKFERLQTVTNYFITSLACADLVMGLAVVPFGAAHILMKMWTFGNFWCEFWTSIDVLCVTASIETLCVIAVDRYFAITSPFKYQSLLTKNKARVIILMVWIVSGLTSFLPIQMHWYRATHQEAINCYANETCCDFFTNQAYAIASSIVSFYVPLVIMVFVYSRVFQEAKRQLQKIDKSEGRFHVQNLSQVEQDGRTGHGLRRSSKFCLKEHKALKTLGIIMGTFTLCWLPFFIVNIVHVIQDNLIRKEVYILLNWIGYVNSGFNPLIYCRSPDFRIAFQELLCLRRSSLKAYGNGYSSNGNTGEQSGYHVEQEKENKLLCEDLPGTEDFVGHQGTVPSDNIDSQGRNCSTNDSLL

SMILES | Mean Percent Inhibition of Control Specific Binding [1] [%] | Mean Percent Inhibition of Control Specific Binding [2] [%] | Mean Percent Inhibition of Control Specific Binding [3] [%] | HTR (head twitch response), in words [4] | Mean Percent Inhibition of Control Specific Binding [5] [%] | Mean Percent Inhibition of Control Specific Binding [6] [%] | Mean Percent Inhibition of Control Specific Binding [7] [%] | Mean Percent Inhibition of Control Specific Binding [8] [%] | MEC [9] [L/mol/cm] | Mean Percent Inhibition of Control Specific Binding [10] [%] | Mean Percent Inhibition of Control Specific Binding [11] [%] | recovery at 60 min [12] [%] | recovery at 40 min [12] [%] | Papp A→B at 60 min [12] [×10⁻⁶ cm/s] | Papp B→A at 40 min [12] [×10⁻⁶ cm/s] | ED50 based on HTR counts ([4]; HTR counts summed over a 30-60 min interval) [mpk]
COCc1cc(CCN)c(O)cc1CC(C)C [2CiBu-2OH-5MM, 2-(2-aminoethyl)-5-isobutyl-4-(methoxymethyl)phenol] | 42.1 | 7.0 | −37.4 | did not produce meaningful HTR across the tested dose range | 84.5 | 17.4 | 8.4 | 35.1 | 380.8 | 12.7 | 10.6 | – | – | – | – | –
COCCc1cc(CCN)c(OC)cc1Br [Compound 2CB-5ME, reference compound] | 31.8 | 5.4 | −4.7 | did not produce statistically significant changes in HTR | 26.2 | 11.4 | 0.2 | −4.6 | – | −4.3 | 47.9 | 75 | 79 | 32.9 | 13.8 | –
COCc1cc(CCN)c(OC)cc1Br [Compound 2CB-5MM, 2-(4-bromo-2-methoxy-5-(methoxymethyl)phenyl)ethan-1-amine] | 18.8 | 9.3 | 0.3 | did not elicit a significant HTR at any tested dose | 19 | 0.2 | 2.7 | 14.5 | 781.9 | 0.7 | 29.2 | 78 | 83 | 29.9 | 14.5 | –
COCc1cc(CCN)c(OC)cc1CC(C)C [Compound 2CiBu-5MM, 2-[4-isobutyl-2-methoxy-5-(methoxymethyl)phenyl]ethanamine] | 38.3 | 4.1 | 13.8 | subtle suppression of HTR during the first 15 min followed by a rebound in HTR counts during the last 30 min segment; also recorded: HTR counts remained near baseline throughout the observation period; also recorded: overall neutral effect compared to vehicle HTR occurrences | 36.0 | −5.4 | −4.6 | 8.2 | 283.6 | −4.2 | 31.8 | 76 | 79 | 24.8 | 13.3 | 5.926
